Data: US20100280040A1 (KAOHSIUNG MEDICAL UNIVERSITY, priority 2009, published 2010)
Values joined by “and” are separate entries in the source; they are usually repeats but may differ in a detail not shown here. Equal values may be shown once. Read-outs that look alike come from different tables or passages of the source. Marks after values point to notes of the source that are not given here.

Columns and labels:
[1] = test system: rat tracheal smooth muscle cells (TSMCs); experiment: MTT assay on rat tracheal smooth muscle cells; type: cell-based, Wistar rat; settings: for cytotoxicity on rat TSMCs: 0.001 to 100 μM, 24 hours, MTT
Protocol: Tracheal tissue of Wistar rat (200 g to 250 g) was aseptically obtained and connective tissue around the tracheal tissue was removed. […] Supernatant was discarded after centrifugation, and cells were resuspended in 10 ml fresh medium B and cultured on 10 cm cull culture plate to proceed the subsequent experiments. The third to sixth generations of cells were used in the following experiments. Cell concentration was adjusted to 10^4 cells/ml by using a cell counter. Ten thousand cells (1 ml) were inoculated in 24-well culture plate for 24 hours, and cells were attached thereon. Medium B then was added to culture cells for another 24 hours. Subsequently, different concentrations of drugs were added into wells for continuously incubating for 24 hours in low-oxygen incubator. MTT (methylhiazolyldiphenyl-tetrazolium bromide, 100 μl, 5 mg/ml) was added into the wells for darkly reacted for 3 hours at 37° C. Isopropanol of 500 μl was added to solve the […], formazan, after MTT was withdrawn. After 10 minutes, the supernatant ([…]) was transferred to the new 96-well culture plate to determine the absorbance at 540 nm (OD540) and 630 nm (OD630). The effect of drug on cellular growth was evaluated by the value of “OD540-OD630”.

[2] = Pharmacokinetic analysis of MSC in male ICR mice (plasma MSC by LC-MS/MS); type: in vivo; settings: for Maximum mean plasma concentration of MSC / Minimum mean plasma concentration of MSC / Mean plasma concentration of MSC: ICR mice; for Maximum mean plasma concentration of MSC: 2 min; for Mean plasma concentration of MSC: 2 hours
[3] = Pharmacokinetic analysis of Pulmodil in male SD rats (plasma MSC by LC-MS/MS); type: in vivo, male Sprague-Dawley (SD) rats; settings: for Maximum mean plasma concentration of MSC / Minimum mean plasma concentration of MSC / Mean plasma concentration of MSC: SD rats
[4] = Mean plasma concentration of MSC after different dosage forms of Pulmodil in SD rats (3 groups, 8 rats per group); type: in vivo
Description: First, SD rats were divided into 3 groups, 8 rats per group.

[5] = for Maximum mean plasma concentration of MSC / Minimum mean plasma concentration of MSC: CD-1 (Crl) mice; for Maximum mean plasma concentration of MSC: 2 min
Protocol: These pharmaceutical solutions were vortexed and sonicated to be fully dissolved to accomplish the preparation of drugs for i.v. administration.
Male Sprague-Dawley (SD) rats (body weight: 250˜292 g) and male CD-1 (Crl) mice (body weight: 23˜25 g) were purchased from BioLasco Taiwan Co., Ltd., Taiwan, and male ICR mice (body weight: 23˜25 g) were provided from MDS Pharma Services (King of Prussia, Pa., U.S.A.). […] Rats and mice were fasted at least 16 hours prior to oral administration.
Regarding CD-1 (Crl) mice and ICR mice, blood samples were collected by cardiac puncture post i.v. administration for 0, 2, 5, 15, 30 minutes, 1, 1.5, 2, 4, 6, 9, 24 and 27 hours (a total of 13 sampling time points). Blood samples of mice were collected by cardiac puncture before oral administration. Blood samples of three mice were collected at each time point by cardiac puncture post oral administration for 15, 30 minutes, 1, 1.5, 2, 4, 6, 9, 24 and 27 hours (a total of 11 sampling time points). Blood sample (0.5˜0.7 ml) collected by cardiac puncture was placed in a 1.5-ml Eppendorf microcentrifuge tube containing 5 μl of anti-coagulant heparin sodium (5,000 I.U./ml), followed by centrifugation at 12,000 rpm at 4° C. for 10 minutes. The plasma fraction was transferred to a clean microcentrifuge tube and stored at −70° C.
Plasma sample was mixed with acetonitrile and centrifuged, and the supernatant was injected onto an LC column. The pharmacokinetic parameters were calculated from mean plasma concentration by WinNonlin Standard program (version 3.1, Pharsight Corp.).

[6] = MSC single i.v. 2.0 mg/kg, male ICR mice
[7] = MSC single oral 20.0 mg/kg, male ICR mice
[8] = Pulmodil single i.v. 2.0 mg/kg, male SD rats
[9] = Pulmodil single oral 18.3 mg/kg, male SD rats
[10] = Pulmodil single sublingual 3.4 mg/kg, male SD rats
[11] = Pulmodil-1 single i.v. 2.0 mg/kg, male CD-1 (Crl) mice
[12] = Pulmodil-1 single oral 20.0 mg/kg, male CD-1 (Crl) mice

Structure (SMILES): Cn1c(=O)c2c(ncn2CCN2CCN(c3ccccc3Cl)CC2)n(C)c1=O [MSC]
- cytotoxicity on rat TSMCs [1]: did not show cytotoxicity
- Maximum mean plasma concentration of MSC ([2]; MSC i.v. 2.0 mg/kg, 2 mg/kg): 447.76 ± 50.30 ng/mL and 447.76 ng/mL
- Minimum mean plasma concentration of MSC ([2]; MSC i.v. 2.0 mg/kg, 24 hr): 0.39 ng/mL
- Mean plasma concentration of MSC ([2]; MSC i.v.): 4.82 ± 1.98 ng/mL
- Maximum mean plasma concentration of MSC ([2]; MSC oral 20.0 mg/kg, 20 mg/kg): 205.92 ± 56.94 ng/mL and 205.92 ng/mL
- Minimum mean plasma concentration of MSC ([2]; MSC oral 20.0 mg/kg, 9 hr, 20 mg/kg): 3.74 ± 1.62 ng/mL and 3.74 ng/mL
- Mean plasma concentration of MSC ([2]; MSC oral): 94.26 ± 40.36 ng/mL
- AUC(0-inf) [2, 6]: 236.6 ng·h/mL
- C(0) [2, 6]: 515.8 ng/mL
- Cl [2, 6]: 140.9 mL/min/kg
- MRT [2, 6]: 120 min
- Vss [2, 6]: 17.2 L/kg
- Vz [2, 6]: 79.0 L/kg
- t1/2 ([2]; MSC single i.v. 2.0 mg/kg, male ICR mice, determined between 9 and 24 hours): 6.5** hr
- AUC(0-inf) [2, 7]: 462.5 ng·h/mL
- Bioavailability [2, 7]: 19.5%
- MAT (MRTPO − MRTIV) [2, 7]: 48 min
- MRT [2, 7]: 168 min
- Tmax [2, 7]: 15 min
- Cmax ([2]; MSC single oral 20.0 mg/kg, male ICR mice, 20 mg/kg): 205.9 ng/mL
- t1/2 ([2]; MSC single oral 20.0 mg/kg, male ICR mice, determined between 4 to 9 hours): 1.2** hr

Structure (SMILES): Cl.Cn1c(=O)c2c(ncn2CCN2CCN(c3ccccc3Cl)CC2)n(C)c1=O [Pulmodil, 7-[2-[4-(2-chlorobenzene)piperazinyl]ethyl]-1,3-dimethylxanthine.HCl]
- cytotoxicity on rat TSMCs [1]: did not show cytotoxicity
- cell survival rate ([1]; high concentrations (10 and 100 μM), rat TSMCs): ~100%
- Maximum mean plasma concentration of MSC ([3]; Pulmodil i.v. 2.0 mg/kg, 2 min, 2 mg/kg): 1263.1 ± 181.4 ng/mL and 1263.1 ng/mL
- Minimum mean plasma concentration of MSC ([3]; Pulmodil i.v. 2.0 mg/kg, 6 hr, 2 mg/kg): 0.7 ± 0.3 ng/mL and 0.7 ng/mL
- Maximum mean plasma concentration of MSC ([3]; Pulmodil oral 20 mg/kg, 5 min): 1294.1 ng/mL
- Minimum mean plasma concentration of MSC ([3]; Pulmodil oral 20 mg/kg, 9 hr): 5.9 ng/mL
- Mean plasma concentration of MSC ([3]; Pulmodil oral 20 mg/kg, 24 hr (text: 24- and 27-hour), 20 mg/kg): 0.2 ± 0.1 ng/mL and 0.2 ng/mL
- Mean plasma concentration of MSC ([3]; Pulmodil oral 20 mg/kg, within 2 minutes): 879.7 ng/mL
- AUC(0-inf) [3, 8]: 608 ng·h/mL
- Cl [3, 8]: 51.7 mL/min/kg
- MRT [3, 8]: 36 min
- Vss [3, 8]: 1.8 L/kg
- Vz [3, 8]: 3.4 L/kg
- t1/2 [3, 8]: 48 min
- AUC(0-inf) [3, 9]: 1142 ng·h/mL
- Cmax [3, 9]: 1390 ng/mL
- MAT (MRTPO − MRTIV) [3, 9]: 66 min
- MRT [3, 9]: 102 min
- Tmax [3, 9]: 6 min
- t1/2 [3, 9]: 198 min
- AUC(0-inf) [3, 10]: 42 ng·h/mL
- Bioavailability [3, 10]: 3.7%
- Cmax [3, 10]: 27 ng/mL
- MAT (MRTSL − MRTIV) [3, 10]: 108 min
- MRT [3, 10]: 144 min
- Tmax [3, 10]: 6 min
- t1/2 [3, 10]: 138 min
- Maximum mean plasma concentration of MSC ([3]; Pulmodil sublingual 3.6 mg/kg, 10 min): 25.9 ± 5.5 ng/mL and 25.9 ng/mL
- Minimum mean plasma concentration of MSC ([3]; Pulmodil sublingual 3.6 mg/kg, 9 hr): 0.7 ng/mL
- Mean plasma concentration of MSC ([3]; Pulmodil sublingual 3.6 mg/kg, within 2 minutes): 22.5 ± 4.1 ng/mL
- Bioavailability ([3]; route not stated, given as fraction): 0.2
- highest mean plasma concentration of MSC ([4]; Pulmodil i.v. 2.0 mg/kg, 2 minutes): 1263.12 ± 181.44 ng/mL
- highest mean plasma concentration of MSC ([4]; Pulmodil i.v. 2.0 mg/kg, 5 minutes): 1171.077 ± 222.16 ng/mL
- highest mean plasma concentration of MSC ([4]; Pulmodil oral 20 mg/kg, 5 minutes): 954.32 ± 332.81 ng/mL
- highest mean plasma concentration of MSC ([4]; Pulmodil oral 20 mg/kg, 10 minutes): 806.85 ± 160.05 ng/mL
- highest mean plasma concentration of MSC ([4]; Pulmodil sublingual 3.6 mg/kg, 2 minutes): 22.48 ± 4.09 ng/mL
- highest mean plasma concentration of MSC ([4]; Pulmodil sublingual 3.6 mg/kg, 30 minutes): 18.24 ± 5.70 ng/mL
- Cmax [5, 11]: 1785.0 ng/mL

Structure (SMILES): Cn1c(=O)c2c(ncn2CCN2CCN(c3ccccc3Cl)CC2)n(C)c1=O.O=C(O)CC(O)(CC(=O)O)C(=O)O [Pulmodil-1, 7-[2-[4-(2-chlorobenzene)piperazinyl]ethyl]-1,3-dimethylxanthine.citric acid]
- cytotoxicity on rat TSMCs [1]: did not show cytotoxicity
- Maximum mean plasma concentration of MSC ([5]; Pulmodil-1 i.v. 2.0 mg/kg, 2 mg/kg): 1425.4 ± 138.2 ng/mL and 1425.4 ng/mL
- Minimum mean plasma concentration of MSC ([5]; Pulmodil-1 i.v. 2.0 mg/kg, 2 hr, 2 mg/kg): 2.7 ± 2.2 ng/mL and 2.7 ng/mL
- Maximum mean plasma concentration of MSC ([5]; Pulmodil-1 oral 20.0 mg/kg, 20 mg/kg): 683.2 ± 187.5 ng/mL and 683.2 ng/mL
- Minimum mean plasma concentration of MSC ([5]; Pulmodil-1 oral 20.0 mg/kg, 4 hr): 11.9 ng/mL
- AUC(0-inf) [5, 11]: 371.3 ng·h/mL
- Cl [5, 11]: 90 mL/min/kg
- Cmax [5, 11]: 1785.0 ng/mL
- Vss [5, 11]: 1.4 L/kg
- Vz [5, 11]: 2.0 L/kg
- t1/2 ([5]; Pulmodil-1 single i.v. 2.0 mg/kg, male CD-1 (Crl) mice, determined between 0.5 and 2 hours): 0.3 h
- AUC(0-inf) [5, 12]: 379.3 ng·h/mL
- Cmax [5, 12]: 683.0 ng/mL
- MAT (MRTPO − MRTIV) [5, 12]: 42 min
- Tmax [5, 12]: 18 min
- Bioavailability ([5]; Pulmodil-1 single oral 20.0 mg/kg, male CD-1 (Crl) mice, 20 mg/kg): 10% and 10.2%
- t1/2 ([5]; Pulmodil-1 single oral 20.0 mg/kg, male CD-1 (Crl) mice, determined between 0.5 to 4 hours): 1.0* hr
